The target of the assay is T1, Tt Pah2 (Tetrahymena thermophila, UniProt I7MFJ3).
T1 construct: gene TTHERM_00215970; residues 1-321 (lacks 14 C-terminal residues of 335), codon-optimised, E. coli; ppSUMO His-SUMO tag cleaved by ULP-1, or pET28 N-terminal His tag kept
T1 sequence (I7MFJ3 1-321): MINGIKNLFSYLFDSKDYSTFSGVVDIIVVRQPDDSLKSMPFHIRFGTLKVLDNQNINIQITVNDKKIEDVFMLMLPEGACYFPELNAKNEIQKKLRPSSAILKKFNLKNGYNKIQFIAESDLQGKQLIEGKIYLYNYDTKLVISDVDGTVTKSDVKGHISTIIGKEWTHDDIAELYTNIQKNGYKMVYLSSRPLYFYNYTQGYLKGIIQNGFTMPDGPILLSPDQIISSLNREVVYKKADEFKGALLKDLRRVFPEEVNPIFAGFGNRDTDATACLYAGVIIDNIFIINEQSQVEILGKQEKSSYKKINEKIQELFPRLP
Briefly: liposome sedimentation, SDS-PAGE. Type of assay: binding. Conditions: 20 mol% POPA liposomes with 40 mol% POPE and POPC, pH 7.5, room temperature; preferential over neutral and POPS liposomes.

Consider `CCCCCCCC/C=C\CCCCCCCC(=O)O[C@H](COC(=O)CCCCCCCCCCCCCCC)COP(=O)(O)O` [POPA], for which the “liposome sedimentation, SDS-PAGE” value was “Tt Pah2 also preferentially interacted with PA-containing liposomes, in comparison with neutral or anionic PS-enriched”.
